Assay results reported in patent publication US11174268B2, “Benzenesulfonamide compouds and their use as therapeutic agents” (Xenon Pharmaceuticals Inc., priority 2016, dated 2021).
pIC50: −log10 of the molar value. Structures can show the parent of a compound that is named as a salt.

How the values were obtained:
[1] = molecular target: NaV1.5 (Homo sapiens (Human), UniProt Q14524); test: Sodium Influx Assay (Flux), NaV1.5; conditions: read-out: Flux NaV1.5 IC50; Trex HEK293 cells, ANG2 dye, inactivated state
[2] = molecular target: T1, NaV1.1 (Homo sapiens (Human), UniProt P35498); test: Electrophysiological Assay (EP), patch voltage clamp, NaV1.1; assay type: cell-based; conditions: HEK-293 cells, whole-cell patch clamp;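 also: sodium current block measured at ambient temperature, holding at fully inactivating potential, 20 ms repolarization to −150 mV before test pulse, versus 0.5% DMSO control currents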
[3] = molecular target: T2, NaV1.6 (Homo sapiens (Human), UniProt Q9UQD0); test: Electrophysiological Assay (EP), patch voltage clamp, NaV1.6; assay type: cell-based; conditions: HEK-293 cells, whole-cell patch clamp;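 also: sodium current recorded at ambient temperature, channels held inactivated then briefly repolarized to −150 mV for 20 ms before a test pulse, control currents in 0.5% DMSO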
[4] = molecular target: T1, NaV1.1; test: Sodium Influx Assay (Flux), NaV1.1; assay type: cell-based; conditions: Trex HEK293 cells, ANG2 dye, inactivated state;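 also: channels co-expressed with human β1 subunit and held open by modulators, cells exposed to compounds for one hour at room temperature, IC50 from percent inhibition of influx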
[5] = molecular target: T2, NaV1.6; test: Sodium Influx Assay (Flux), NaV1.6; assay type: cell-based; conditions: Trex HEK293 cells, ANG2 dye, inactivated state;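 also: Tetracycline-induced cells, compounds applied for one hour at room temperature with modulators holding channels open, IC50 from percent inhibition of sodium influx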

T2 sequence (Q9UQD0 whole entry): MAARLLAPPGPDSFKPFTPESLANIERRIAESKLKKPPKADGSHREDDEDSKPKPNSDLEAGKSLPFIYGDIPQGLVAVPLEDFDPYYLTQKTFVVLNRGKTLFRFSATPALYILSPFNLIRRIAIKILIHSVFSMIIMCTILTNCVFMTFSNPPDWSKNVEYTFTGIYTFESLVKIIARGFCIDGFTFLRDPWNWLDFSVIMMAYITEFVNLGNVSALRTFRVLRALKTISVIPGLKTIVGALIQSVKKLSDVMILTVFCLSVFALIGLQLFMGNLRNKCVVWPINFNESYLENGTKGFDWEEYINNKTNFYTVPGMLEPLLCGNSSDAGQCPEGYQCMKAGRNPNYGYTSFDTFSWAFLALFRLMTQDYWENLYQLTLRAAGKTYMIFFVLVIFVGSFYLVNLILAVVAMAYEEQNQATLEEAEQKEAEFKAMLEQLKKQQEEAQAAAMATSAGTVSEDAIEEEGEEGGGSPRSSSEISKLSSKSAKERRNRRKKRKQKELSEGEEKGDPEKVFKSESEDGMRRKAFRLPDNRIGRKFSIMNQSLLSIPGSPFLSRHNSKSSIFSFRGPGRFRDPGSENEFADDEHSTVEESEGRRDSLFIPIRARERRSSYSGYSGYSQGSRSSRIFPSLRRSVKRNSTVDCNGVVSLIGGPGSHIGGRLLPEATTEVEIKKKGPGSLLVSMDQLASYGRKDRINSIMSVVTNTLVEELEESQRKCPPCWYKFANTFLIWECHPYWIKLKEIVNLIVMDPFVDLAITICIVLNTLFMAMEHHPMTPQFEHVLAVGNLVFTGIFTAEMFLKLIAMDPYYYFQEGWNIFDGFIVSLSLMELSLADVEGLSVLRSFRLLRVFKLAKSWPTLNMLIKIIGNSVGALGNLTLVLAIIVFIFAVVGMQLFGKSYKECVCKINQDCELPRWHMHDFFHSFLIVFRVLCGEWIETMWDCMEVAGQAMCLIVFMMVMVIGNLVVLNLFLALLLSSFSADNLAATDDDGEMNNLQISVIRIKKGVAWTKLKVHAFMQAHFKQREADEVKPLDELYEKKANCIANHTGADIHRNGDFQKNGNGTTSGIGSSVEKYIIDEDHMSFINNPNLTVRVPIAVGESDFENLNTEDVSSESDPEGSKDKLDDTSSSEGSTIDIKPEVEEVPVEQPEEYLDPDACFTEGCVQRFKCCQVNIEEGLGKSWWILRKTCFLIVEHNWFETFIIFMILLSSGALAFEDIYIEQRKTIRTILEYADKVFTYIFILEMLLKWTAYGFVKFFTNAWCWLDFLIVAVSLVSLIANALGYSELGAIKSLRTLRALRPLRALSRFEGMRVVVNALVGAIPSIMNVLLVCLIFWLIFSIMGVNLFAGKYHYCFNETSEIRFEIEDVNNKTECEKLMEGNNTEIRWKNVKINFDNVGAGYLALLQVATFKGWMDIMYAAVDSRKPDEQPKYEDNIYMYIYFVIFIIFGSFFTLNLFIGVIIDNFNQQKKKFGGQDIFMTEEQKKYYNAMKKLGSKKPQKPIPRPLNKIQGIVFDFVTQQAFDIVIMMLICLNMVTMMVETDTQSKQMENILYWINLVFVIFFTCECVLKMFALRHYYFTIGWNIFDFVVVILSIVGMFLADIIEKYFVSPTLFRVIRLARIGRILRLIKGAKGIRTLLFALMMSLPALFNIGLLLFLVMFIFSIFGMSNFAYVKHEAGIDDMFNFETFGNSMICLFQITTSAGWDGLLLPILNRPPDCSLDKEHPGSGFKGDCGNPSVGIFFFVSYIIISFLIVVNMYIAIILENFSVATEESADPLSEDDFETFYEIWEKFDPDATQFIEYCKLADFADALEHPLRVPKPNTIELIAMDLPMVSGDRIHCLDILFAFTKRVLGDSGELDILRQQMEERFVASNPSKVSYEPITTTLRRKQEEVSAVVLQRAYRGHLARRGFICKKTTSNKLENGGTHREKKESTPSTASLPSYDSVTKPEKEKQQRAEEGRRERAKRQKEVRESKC
NaV1.5, sequence (Q14524 other isoform, or with tags, fused parts or gaps): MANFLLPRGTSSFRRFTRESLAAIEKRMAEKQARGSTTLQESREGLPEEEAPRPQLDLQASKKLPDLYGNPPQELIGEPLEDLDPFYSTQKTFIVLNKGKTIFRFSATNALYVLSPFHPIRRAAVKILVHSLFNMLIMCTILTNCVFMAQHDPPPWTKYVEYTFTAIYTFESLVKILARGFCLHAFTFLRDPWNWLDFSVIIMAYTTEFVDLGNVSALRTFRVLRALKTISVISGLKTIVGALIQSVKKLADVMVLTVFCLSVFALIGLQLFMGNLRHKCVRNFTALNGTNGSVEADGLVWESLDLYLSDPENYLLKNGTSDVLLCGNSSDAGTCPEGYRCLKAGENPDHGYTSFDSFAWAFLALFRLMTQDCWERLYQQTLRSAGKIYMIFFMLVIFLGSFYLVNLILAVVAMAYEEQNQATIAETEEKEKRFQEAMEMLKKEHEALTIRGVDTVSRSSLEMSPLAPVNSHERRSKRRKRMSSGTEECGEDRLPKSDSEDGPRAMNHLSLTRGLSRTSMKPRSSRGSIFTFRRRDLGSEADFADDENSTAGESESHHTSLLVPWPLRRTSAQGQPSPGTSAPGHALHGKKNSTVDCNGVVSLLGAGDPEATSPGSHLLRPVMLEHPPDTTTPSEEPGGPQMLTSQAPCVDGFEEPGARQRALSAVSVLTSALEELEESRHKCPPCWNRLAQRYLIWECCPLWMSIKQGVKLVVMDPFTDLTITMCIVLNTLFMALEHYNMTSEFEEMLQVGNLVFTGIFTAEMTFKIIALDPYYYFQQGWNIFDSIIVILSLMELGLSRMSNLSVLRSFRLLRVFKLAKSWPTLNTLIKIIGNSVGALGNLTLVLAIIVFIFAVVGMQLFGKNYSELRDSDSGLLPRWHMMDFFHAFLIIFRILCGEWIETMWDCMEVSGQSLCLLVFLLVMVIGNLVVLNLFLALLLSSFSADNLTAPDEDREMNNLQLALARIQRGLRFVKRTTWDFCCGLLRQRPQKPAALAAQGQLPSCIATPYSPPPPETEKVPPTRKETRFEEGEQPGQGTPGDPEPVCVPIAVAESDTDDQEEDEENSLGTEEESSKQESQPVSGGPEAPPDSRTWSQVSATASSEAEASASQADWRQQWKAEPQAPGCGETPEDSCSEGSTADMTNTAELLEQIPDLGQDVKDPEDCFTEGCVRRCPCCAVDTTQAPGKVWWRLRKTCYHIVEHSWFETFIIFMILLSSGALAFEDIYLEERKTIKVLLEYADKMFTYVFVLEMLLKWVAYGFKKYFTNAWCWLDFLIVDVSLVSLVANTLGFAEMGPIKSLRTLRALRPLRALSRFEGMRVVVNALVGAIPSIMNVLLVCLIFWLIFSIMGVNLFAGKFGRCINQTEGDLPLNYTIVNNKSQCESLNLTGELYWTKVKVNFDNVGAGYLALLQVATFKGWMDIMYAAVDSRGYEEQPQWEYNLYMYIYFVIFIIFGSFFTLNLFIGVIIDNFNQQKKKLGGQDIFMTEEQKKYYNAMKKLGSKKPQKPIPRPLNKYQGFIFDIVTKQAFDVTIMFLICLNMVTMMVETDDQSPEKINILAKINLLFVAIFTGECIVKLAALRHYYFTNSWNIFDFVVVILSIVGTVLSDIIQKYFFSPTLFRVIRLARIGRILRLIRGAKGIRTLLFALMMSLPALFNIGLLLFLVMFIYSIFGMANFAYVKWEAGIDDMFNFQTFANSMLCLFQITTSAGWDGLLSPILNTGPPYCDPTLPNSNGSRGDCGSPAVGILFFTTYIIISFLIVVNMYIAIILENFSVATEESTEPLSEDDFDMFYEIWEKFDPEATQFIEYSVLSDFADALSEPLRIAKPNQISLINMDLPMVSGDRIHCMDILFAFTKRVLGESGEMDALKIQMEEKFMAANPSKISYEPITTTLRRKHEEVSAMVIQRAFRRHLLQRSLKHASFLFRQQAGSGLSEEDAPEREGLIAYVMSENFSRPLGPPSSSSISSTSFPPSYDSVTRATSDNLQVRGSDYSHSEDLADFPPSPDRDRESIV

| Compound | pIC50 [2] | pIC50 [3] | pIC50 [4] | pIC50 [5] | pIC50 [1] |
| --- | --- | --- | --- | --- | --- |
| O=S(=O)(Nc1nccs1)c1cc(Cl)c(O[C@H](c2ccccc2)C(F)(F)F)cc1F [Example 80, (R)-5-chloro-2-fluoro-N-(thiazol-2-yl)-4-(2,2,2-trifluoro-1-phenylethoxy)benzenesulfonamide] | 5.00 | 7.00 | 4.95 | 5.76 | 5.24 |
| C[C@H](Oc1cc(F)c(S(=O)(=O)Nc2nccs2)cc1Cl)c1ccccc1 [Example 115, (S)-5-chloro-2-fluoro-4-(1-phenylethoxy)-N-(thiazol-2-yl)benzenesulfonamide] | 5.00 | 6.87 | 4.76 | 5.86 | 5.00 |
| O=S(=O)(Nc1cccnn1)c1c(F)cc(NCc2c(F)cccc2CN2CCC2)cc1F [Example 333, 4-((2-(azetidin-1-ylmethyl)-6-fluorobenzyl)amino)-2,6-difluoro-N-(pyridazin-3-yl)benzenesulfonamide formate] | 5.00 | 6.73 | 4.52 | 6.59 | 4.52 |
| O=S(=O)(Nc1cscn1)c1cc(Cl)c(N[C@H](CN2CCCC2)c2ccccc2)cc1F [Example 73, (S)-5-chloro-2-fluoro-4-((1-phenyl-2-(pyrrolidin-1-yl)ethyl)amino)-N-(thiazol-4-yl)benzenesulfonamide] | 5.00 | 5.94 | 4.64 | 5.41 | 4.52 |
| O=S(=O)(Nc1cscn1)c1cc(Cl)c(NCc2c(F)ccc(F)c2CN2CCC2)cc1F [Example 288, 4-((2-(Azetidin-1-ylmethyl)-3,6-difluorobenzyl)amino)-5-chloro-2-fluoro-N-(thiazol-4-yl)benzenesulfonamide hydrochloride] | 5.00 | 7.44 | 4.93 | 6.74 | 4.75 |
| O=S(=O)(Nc1cscn1)c1cc(Cl)c(NC2(c3ccccc3)CC2)cc1F [Example 20, 5-chloro-2-fluoro-4-((1-phenylcyclopropyl)amino)-N-(thiazol-4-yl)benzenesulfonamide] | 5.00 | 5.93 | 4.52 | 5.69 | 4.52 |
| CN1CC(Oc2cccc(F)c2CNc2cc(F)c(S(=O)(=O)Nc3cscn3)c(F)c2)C1 [Example 326, 2,6-difluoro-4-((2-fluoro-6-((1-methylazetidin-3-yl)oxy)benzyl)amino)-N-(thiazol-4-yl)benzenesulfonamide formate] | 5.00 | 7.05 | 5.10 | 6.90 | 4.90 |
| 3-chloro-4-(1-phenylethylamino)-N-(1,2,4-thiadiazol-5-yl)benzenesulfonamide [Example 142] | 5.00 | 6.97 | 5.49 | 6.73 | 4.67 |
| C[C@H](Oc1cc(F)c(S(=O)(=O)Nc2nccs2)cc1Cl)c1cccc(F)c1 [Example 114, (S)-5-chloro-2-fluoro-4-(1-(3-fluorophenyl)ethoxy)-N-(thiazol-2-yl)benzenesulfonamide] | 5.00 | 6.59 | 5.30 | 6.01 | 5.33 |
| O=S(=O)(Nc1ccncn1)c1cc(Cl)c(N[C@H](c2cc(Cl)ccc2F)C(F)(F)F)cc1F [Example 270, (R)-5-chloro-4-((1-(5-chloro-2-fluorophenyl)-2,2,2-trifluoroethyl)amino)-2-fluoro-N-(pyrimidin-4-yl)benzenesulfonamide] | 5.00 | 7.74 | 4.90 | 6.67 | 4.96 |
| O=S(=O)(Nc1cscn1)c1cc(Cl)c(NCc2c(F)cccc2CN2CC(F)C2)cc1F [Example 247, 5-chloro-2-fluoro-4-((2-fluoro-6-((3-fluoroazetidin-1-yl)methyl)benzyl)amino)-N-(thiazol-4-yl)benzenesulfonamide] | 5.00 | 6.39 | 4.60 | 5.21 | 4.52 |
| CN(C)C[C@@H](Nc1cc(F)c(S(=O)(=O)Nc2nccs2)cc1Cl)c1ccccc1 [Example 64, (S)-5-chloro-4-((2-(dimethylamino)-1-phenylethyl)amino)-2-fluoro-N-(thiazol-2-yl)benzenesulfonamide 2,2,2-trifluoroacetate] | 5.00 | 7.07 | 4.84 | 6.71 | 4.52 |
| CCC(Nc1ccc(S(=O)(=O)Nc2nccs2)cc1Cl)c1ccccn1 (stereo not shown) [Example 81, 3-chloro-4-((1-(pyridin-2-yl)propyl)amino)-N-(thiazol-2-yl)benzenesulfonamide] | 5.00 | 6.84 | 4.65 | 6.19 | 4.52 |
| Cc1cc(S(=O)(=O)Nc2cscn2)c(F)cc1NCc1c(F)cccc1CN1CC(F)C1 [Example 137, 2-fluoro-4-((2-fluoro-6-((3-fluoroazetidin-1-yl)methyl)benzyl)amino)-5-methyl-N-(thiazol-4-yl)benzenesulfonamide] | 5.00 | 6.45 | 4.52 | 6.23 | 4.52 |
| O=S(=O)(Nc1cscn1)c1c(F)cc(NCc2c(Cl)cccc2CN2CCC2)cc1F [Example 290, 4-((2-(azetidin-1-ylmethyl)-6-chlorobenzyl)amino)-2,6-difluoro-N-(thiazol-4-yl)benzenesulfonamide 2,2,2-trifluoroacetate] | 5.00 | 7.96 | 5.22 | 7.00 | 4.60 |
| CC[C@@H](Nc1ccc(S(=O)(=O)Nc2ncns2)cc1Cl)c1ccccc1 [Example 31, (R)-3-chloro-4-((1-phenylpropyl)amino)-N-(1,2,4-thiadiazol-5-yl)benzenesulfonamide] | 5.00 | 6.93 | 5.21 | 6.04 | 4.77 |
| O=S(=O)(Nc1cscn1)c1cc(Cl)c(NCc2c(F)ccc(F)c2CO)cc1F [Example 293, 5-Chloro-4-((3,6-difluoro-2-(hydroxymethyl)benzyl)amino)-2-fluoro-N-(thiazol-4-yl)benzenesulfonamide] | 5.00 | 6.69 | 4.90 | 6.37 | 4.52 |

Now from value to compound, other results behind:

| pIC50 [2] | pIC50 [3] | pIC50 [4] | pIC50 [5] | Compound | pIC50 [1] |
| --- | --- | --- | --- | --- | --- |
| 5.85 | 6.53 | 5.39 | 6.02 | CC(Cc1cccnc1)Nc1cc(F)c(S(=O)(=O)Nc2nccs2)cc1Cl (stereo not shown) [Example 56, 5-chloro-2-fluoro-4-((1-(pyridin-3-yl)propan-2-yl)amino)-N-(thiazol-2-yl)benzenesulfonamide] | 4.52 |
| 5.00 | 6.90 | 5.08 | 6.42 | O=S(=O)(Nc1cccc(F)n1)c1cc(Cl)c(NCc2c(F)ccc(F)c2CN2CCC2)cc1F [Example 131, 4-((2-(azetidin-1-ylmethyl)-3,6-difluorobenzyl)amino)-5-chloro-2-fluoro-N-(6-fluoropyridin-2-yl)benzenesulfonamide] | 4.96 |
| 5.00 | 6.47 | 4.97 | 6.03 | O=S(=O)(Nc1nccs1)c1ccc(N[C@@H](CO)c2ccccc2)c(Cl)c1 [Example 91, (R)-3-chloro-4-((2-hydroxy-1-phenylethyl)amino)-N-(thiazol-2-yl)benzenesulfonamide] | 4.52 |
| 5.00 | 6.60 | 5.37 | 6.49 | O=S(=O)(Nc1cscn1)c1c(F)cc(NCc2c(Cl)cccc2CN2CC(F)C2)cc1F [Example 129, 4-((2-chloro-6-((3-fluoroazetidin-1-yl)methyl)benzyl)amino)-2,6-difluoro-N-(thiazol-4-yl)benzenesulfonamide] | 4.52 |
| 5.00 | 6.02 | 4.52 | 5.15 | O=S(=O)(Nc1cccc(F)n1)c1cc(Cl)c(N[C@H](CN2CCCC2)c2ccccc2)cc1F [Example 72, (S)-5-chloro-2-fluoro-N-(6-fluoropyridin-2-yl)-4-((1-phenyl-2-(pyrrolidin-1-yl)ethyl)amino)benzenesulfonamide 2,2,2-trifluoroacetate] | 4.52 |
| 5.51 | 7.28 | 4.76 | 6.86 | O=S(=O)(Nc1cccc(F)n1)c1cc(Cl)c(NCc2cccc3ccncc23)cc1F [Example 62, 5-chloro-2-fluoro-N-(6-fluoropyridin-2-yl)-4-((isoquinolin-8-ylmethyl)amino)benzenesulfonamide] | 4.52 |
| 5.25 | 6.58 | 5.60 | 6.02 | CC[C@H](Nc1cc(F)c(S(=O)(=O)Nc2cccc(F)n2)cc1Cl)c1ccccc1F [Example 316, (S)-5-chloro-2-fluoro-4-((1-(2-fluorophenyl)propyl)amino)-N-(6-fluoropyridin-2-yl)benzenesulfonamide] | 5.23 |
| 5.73 | 6.55 | 5.63 | 6.10 | CC[C@@H](Nc1cc(F)c(S(=O)(=O)Nc2nccs2)cc1Cl)c1ccccc1 [Example 39, (R)-5-chloro-2-fluoro-4-((1-phenylpropyl)amino)-N-(thiazol-2-yl)benzenesulfonamide] | 5.17 |
| 5.05 | 7.64 | 5.24 | 6.51 | C[C@H](Oc1cc(F)c(S(=O)(=O)Nc2nccs2)cc1Cl)c1c(F)cccc1F [Example 119, (S)-5-chloro-4-(1-(2,6-difluorophenyl)ethoxy)-2-fluoro-N-(thiazol-2-yl)benzenesulfonamide] | 5.74 |
